Source: ChEMBL document CHEMBL1201862, “PubChem BioAssay data set” (2004)
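A five-concentration, 48-hour dose response in 96-well plates underlies each endpoint, interpolated linearly between surrounding concentrations. GI50 = concentration required for 50% inhibition of growth.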 Active and inactive are the calls of the source. Rule as the data show it: active = GI50 up to about 1.1 µM and inactive = higher.

Experiments:
Assay in all cases: NCI anticancer screen, dose series, 48 h
K562 = test system: K562
SW-620 = test system: SW-620
OVCAR-8 = test system: OVCAR-8
BT-549 = test system: BT-549
RPMI-8226 = test system: RPMI-8226
SK-MEL-28 = test system: SK-MEL-28
NCI-H226 = test system: NCI-H226
HOP-62 = test system: HOP-62
MDA-MB-435 = test system: MDA-MB-435
NCI-H23 = test system: NCI-H23
A498 = test system: A498
ACHN = test system: ACHN
U-251 = test system: U-251
T47D = test system: T47D
HCT-116 = test system: HCT-116
MDA-MB-231 = test system: MDA-MB-231
SK-OV-3 = test system: SK-OV-3
EKVX = test system: EKVX
NCI-H522 = test system: NCI-H522
LXFL 529 = test system: LXFL 529

Structure (SMILES)	GI50 (K562)	GI50 (SW-620)	GI50 (OVCAR-8)	GI50 (BT-549)	GI50 (RPMI-8226)	GI50 (SK-MEL-28)	GI50 (NCI-H226)	GI50 (HOP-62)	GI50 (MDA-MB-435)	GI50 (NCI-H23)	GI50 (A498)	GI50 (ACHN)	GI50 (U-251)	GI50 (T47D)	GI50 (HCT-116)	GI50 (MDA-MB-231)	GI50 (SK-OV-3)	GI50 (EKVX)	GI50 (NCI-H522)	GI50 (LXFL 529)
C=CCc1cc(C(Cc2ccccc2)NC(C)C)cc(OCc2ccccc2)c1OCc1ccccc1 (stereo unspecified)	16.8 µM (inactive)	18.2 µM (inactive)	17 µM (inactive)	17.3 µM (inactive)	12.9 µM (inactive)	16.4 µM (inactive)	17.7 µM (inactive)	15.9 µM (inactive)	15.7 µM (inactive)	18.8 µM (inactive)	15.3 µM (inactive)	16.9 µM (inactive)	14.3 µM (inactive)	14.5 µM (inactive)	16.4 µM (inactive)	15 µM (inactive)	14 µM (inactive)	16.2 µM (inactive)	15.3 µM (inactive)	–
O=C(O)c1cc(O)nc(S)n1	> 100 µM (inactive)	> 100 µM (inactive)	> 100 µM (inactive)	> 100 µM (inactive)	> 100 µM (inactive)	> 100 µM (inactive)	> 100 µM (inactive)	> 100 µM (inactive)	> 100 µM (inactive)	> 100 µM (inactive)	> 100 µM (inactive)	> 100 µM (inactive)	> 100 µM (inactive)	> 100 µM (inactive)	> 100 µM (inactive)	> 100 µM (inactive)	> 100 µM (inactive)	> 100 µM (inactive)	> 100 µM (inactive)	–
CCCCCC1C2C(=O)NC(=O)C1C(=O)NC2=O (stereo unspecified)	> 100 µM (inactive)	> 100 µM (inactive)	> 100 µM (inactive)	–	> 100 µM (inactive)	> 100 µM (inactive)	> 100 µM (inactive)	> 100 µM (inactive)	–	> 100 µM (inactive)	> 100 µM (inactive)	> 100 µM (inactive)	–	–	–	–	> 100 µM (inactive)	> 100 µM (inactive)	> 100 µM (inactive)	> 100 µM (inactive)
COc1ccc2c(c1)CCCC(Br)C2=O (stereo unspecified)	0.447 µM (active)	2.29 µM (inactive)	3.98 µM (inactive)	2.55 µM (inactive)	2.34 µM (inactive)	6.92 µM (inactive)	2.18 µM (inactive)	5.55 µM (inactive)	2.02 µM (inactive)	4.9 µM (inactive)	19.6 µM (inactive)	6.32 µM (inactive)	4.72 µM (inactive)	23.9 µM (inactive)	0.407 µM (active)	2.92 µM (inactive)	3.97 µM (inactive)	18.1 µM (inactive)	0.265 µM (active)	–
